Data from patent publication US8926966B1 (Regents of the University of California, priority 1990, dated 2015).

B1: GAD67: rat GAD67 expressed in bacteria, ^35S-labeled, in bacterial lysate (protein)
chain: MASSTPSPATSSNAGADPNTTNLRPTTYDTWCGVAHGCTRKLGLKICGFLQRTNSLEEKSRLVSAFRERQASKNLLSCENSDPGARFRRTETDFSNLFAQDLLPAKNGEEQTVQFLLEVVDILLNYVRKTFDRSTKVLDFHHPHQLLEGMEGFNLELSDHPESLEQILVDCRDTLKYGVRTGHPRFFNQLSTGLDIIGLAGEWLTSTANTNMFTYEIAPVFVLMEQITLKKMREIIGWSNKDGDGIFSPGGAISNMYSIMAARYKYFPEVKTKGMAAVPKLVLFTSEHSHYSIKKAGAALGFGTDNVILIKCNERGKIIPADLEAKILDAKQKGFVPLYVNATAGTTVYGAFDPIQEIADICEKYNLWLHVDAAWGGGLLMSRKHRHKLSGIERANSVTWNPHKMMGVLLQCSAILVKEKGILQGCNQMCAGYLFQPDKQYDVSYDTGDKAIQCGRHVDIFKFWLMWKAKGTVGFENQINKCLELAEYLYAKIKNREEFEMVFNGEPEHTNVCFWYIPQSLRGVPDSPERREKLHRVAPKIKALMMESGTTMVGYQPQGDKANFFRMVISNPAATQSDIDFLIEEIERLGQDL

Assays:
[1] = tested on: IDDM associated autoantibodies in sera; assay: ELISA of sera on plate-bound human GAD65 peptides; format: binding; details: for number of IDDM (at risk, pre-IDDM, at onset) patients positive (X) for the peptide (unlabelled sum line): IDDM sera of Table 11
Experimental: Patient sera and most control sera were those used in a previous study (Kaufman, et al., J. Clin. Investigation, supra) All samples were coded and tested in a blind manner. Peptides were synthesized using an automatic instrument (Applied Biosystems, Foster City, Calif.) and standard conditions. Peptides were dissolved in 60 mM sodium bicarbonate buffer (pH 9.6) at 20 ug/ml and 100 ul of each was added to duplicated wells of a 96 well Nunc-Immuno Plate. Peptides were allowed to bind at 4° C. overnight. The plates were then washed three times with PBS+0.1% Tween 20 (wash buffer), after which the plates were pre-absorbed with 3% BSA in sodium bicarbonate buffer for 0.5 hours at 37° C., or at room temperature overnight. The plates were then washed 5 times with the above wash buffer. 100 ul of serum at a 1/300 dilution in PBS+0.1% Tween 20 and 1% BSA was added to each well and antibodies were allowed to bind for 1 hour at 37° C. The plates were washed 5 times with wash buffer. 100 ul of a 1/600 dilution of HRP-goat anti-human IgG (BRL, Gaithersberg, Md.) was added to each well and allowed to bind for 1 hour at 37° C. The plates were then washed 7 times and 100 ul of substrate buffer was added to each well for 30 minutes at room temperature. The color development was measured at 410 nm using an ELISA plate reader (ICN, Biomedicals, Costa Mesa, Calif.). Positive sera were defined as: OD410 of the sample/negative control ≧3.0.

[2] = tested on: autoantibodies to GAD in patient sera; assay: Immunoprecipitation of ^35S-GAD65 / ^35S-GAD67 by sera drawn prior to IDDM onset; format: binding, human; parameters: key to band intensity of immunoprecipitated ^35S-GAD: 1 = lowest; 2 = medium; 3 = highest band intensities
Experimental: Islet cells were extracted as previously described by Atkinson, et al. (Lancet, 335:1357-1360, 1990) with the following modifications. […] The protein A Sepharose CL-4B was then boiled in Laemmli sample buffer (Laemmli, Nature, 227:680-685, 1970), and the samples were subjected to SDS-PAGE and fluororadiography (Kodak, X-omat AR5) using Enhance (New England Nuclear). Alternatively, the autoradiographs were analyzed by a BETAGEN (Boston, Mass.) analyzer. Both 64KA positive and negative sera were used in each assay, to serve as interassay controls. All fluororadiographs were analyzed and rated as positive or negative after comparison with the known interassay controls. […] A similar rating procedure was employed for the intensity of bands corresponding to immunoprecipitated ^35S-GAD65 and ^35S-GAD67.
Rat GAD65 and GAD67 cDNAs were subcloned into a bacterial expression system as previously described. Labeling of ^35S-GADs was completed by pulsing IPTG induced bacterium (growing in Minimal Media) for 15 minutes with TRAN ^35S-label (ICN). Cultures were then spun down and resuspended and sonicated in 1 ml of homogenizing buffer (1 mM phenylmethylsulfonyl fluoride (PMSF), 1 mM 2-aminoethylisothiouronium Bromide (AET) and 60 mM potassium phosphate, pH 7.1). After sonication, cell debris was removed by centrifugation and protein concentration was measured (Bradford, Anal. Biochem., 72:248, […]) in the supernatant (supernatant was stored in aliquots at −70° C.).

[3] = IDDM At Onset serum 048, 1/300 dilution
[4] = IDDM At Onset serum 705, 1/300 dilution
[5] = IDDM At Risk serum 052, 1/300 dilution
[6] = IDDM At Risk serum 356, 1/300 dilution
[7] = Pre-IDDM serum 723, 1/300 dilution
[8] = Pre-IDDM serum P.T. (1), 1/300 dilution
[9] = Pre-IDDM serum P.T. (2), 1/300 dilution
[10] = Pre-IDDM serum R.S. (1), 1/300 dilution
[11] = Pre-IDDM serum R.S. (2), 1/300 dilution
[12] = control serum 4380, 1/300 dilution
[13] = control serum 5620, 1/300 dilution
[14] = control serum 5748, 1/300 dilution
[15] = control serum A.P., 1/300 dilution
[16] = control serum S.M., 1/300 dilution

Row | Molecule | immunoreactivity by both control and patient sera [1] | immunoreactivity of serum with GAD65 peptide [1, 3] | immunoreactivity of serum with GAD65 peptide [1, 4] | immunoreactivity of serum with GAD65 peptide [1, 5] | immunoreactivity of serum with GAD65 peptide [1, 6] | immunoreactivity of serum with GAD65 peptide [1, 7] | immunoreactivity of serum with GAD65 peptide [1, 8] | immunoreactivity of serum with GAD65 peptide [1, 9] | immunoreactivity of serum with GAD65 peptide [1, 10] | immunoreactivity of serum with GAD65 peptide [1, 11] | immunoreactivity of serum with GAD65 peptide [1, 12] | immunoreactivity of serum with GAD65 peptide [1, 13] | immunoreactivity of serum with GAD65 peptide [1, 14] | immunoreactivity of serum with GAD65 peptide [1, 15] | immunoreactivity of serum with GAD65 peptide [1, 16] | number of IDDM (at risk, pre-IDDM, at onset) patients positive (X) for the peptide (unlabelled sum line) [1] | further results
1 | QPPRAAARKAACACDQKPCSC [Peptide 5] | often positive | X (X = positive for immunoreactivity as defined by 00/background^3.0) | X (X = positive for immunoreactivity as defined by 00/background^3.0) | X (X = positive for immunoreactivity as defined by 00/background^3.0) | X (X = positive for immunoreactivity as defined by 00/background^3.0) | X (X = positive for immunoreactivity as defined by 00/background^3.0) | X (X = positive for immunoreactivity as defined by 00/background^3.0) | X (X = positive for immunoreactivity as defined by 00/background^3.0) | X (X = positive for immunoreactivity as defined by 00/background^3.0) | X (X = positive for immunoreactivity as defined by 00/background^3.0) | X (X = positive for immunoreactivity as defined by 00/background^3.0) | X (X = positive for immunoreactivity as defined by 00/background^3.0) | X (X = positive for immunoreactivity as defined by 00/background^3.0) | X (X = positive for immunoreactivity as defined by 00/background^3.0) | X (X = positive for immunoreactivity as defined by 00/background^3.0) | – | immunoreactivity of serum with GAD65 peptide ([1]; IDDM At Onset serum 291, 1/300 dilution): X (X = positive for immunoreactivity as defined by 00/background^3.0); immunoreactivity of serum with GAD65 peptide ([1]; IDDM At Onset serum S.H., 1/300 dilution): X (X = positive for immunoreactivity as defined by 00/background^3.0); immunoreactivity of serum with GAD65 peptide ([1]; IDDM At Risk serum 825, 1/300 dilution): X (X = positive for immunoreactivity as defined by 00/background^3.0); immunoreactivity of serum with GAD65 peptide ([1]; IDDM At Risk serum L.I., 1/300 dilution): X (X = positive for immunoreactivity as defined by 00/background^3.0); immunoreactivity of serum with GAD65 peptide ([1]; Pre-IDDM serum B.Y. (1), 1/300 dilution): X (X = positive for immunoreactivity as defined by 00/background^3.0); immunoreactivity of serum with GAD65 peptide ([1]; Pre-IDDM serum B.Y. (2), 1/300 dilution): X (X = positive for immunoreactivity as defined by 00/background^3.0); immunoreactivity of serum with GAD65 peptide ([1]; Pre-IDDM serum J.A., 1/300 dilution): X (X = positive for immunoreactivity as defined by 00/background^3.0); immunoreactivity of serum with GAD65 peptide ([1]; Pre-IDDM serum J.B. (1), 1/300 dilution): b (b = borderline response (00/background ?2.5-2.9).); immunoreactivity of serum with GAD65 peptide ([1]; Pre-IDDM serum J.B. (2), 1/300 dilution): X (X = positive for immunoreactivity as defined by 00/background^3.0); immunoreactivity of serum with GAD65 peptide ([1]; control serum 1688, 1/300 dilution): b (b = borderline response (00/background ?2.5-2.9).); immunoreactivity of serum with GAD65 peptide ([1]; control serum FA2, 1/300 dilution): X (X = positive for immunoreactivity as defined by 00/background^3.0); immunoreactivity of serum with GAD65 peptide ([1]; control serum FA9, 1/300 dilution): X (X = positive for immunoreactivity as defined by 00/background^3.0); immunoreactivity of serum with GAD65 peptide ([1]; control serum FA11, 1/300 dilution): X (X = positive for immunoreactivity as defined by 00/background^3.0); immunoreactivity of serum with GAD65 peptide ([1]; control serum H.B., 1/300 dilution): b (b = borderline response (00/background ?2.5-2.9).); immunoreactivity of serum with GAD65 peptide ([1]; control serum P.T., 1/300 dilution): X (X = positive for immunoreactivity as defined by 00/background^3.0)
2 | SFDRSTKVIDFHYPNELLQE [Peptide 9] | often positive | X (X = positive for immunoreactivity as defined by 00/background^3.0) | – | b (b = borderline response (00/background ?2.5-2.9).) | X (X = positive for immunoreactivity as defined by 00/background^3.0) | X (X = positive for immunoreactivity as defined by 00/background^3.0) | b (b = borderline response (00/background ?2.5-2.9).) | b (b = borderline response (00/background ?2.5-2.9).) | b (b = borderline response (00/background ?2.5-2.9).) | b (b = borderline response (00/background ?2.5-2.9).) | b (b = borderline response (00/background ?2.5-2.9).) | b (b = borderline response (00/background ?2.5-2.9).) | b (b = borderline response (00/background ?2.5-2.9).) | X (X = positive for immunoreactivity as defined by 00/background^3.0) | X (X = positive for immunoreactivity as defined by 00/background^3.0) | 3 | number of control sera positive (X) for the peptide (unlabelled sum line) ([1]; 13 control sera): 2
3 | TNMFTYEIAPVFVLLEYVTL [Peptide 14] | – | – | – | b (b = borderline response (00/background ?2.5-2.9).) | – | – | – | – | – | – | – | – | – | – | – | – | –
4 | VNFFRMVISNPAATHQDIDF [Peptide 37] | – | – | X (X = positive for immunoreactivity as defined by 00/background^3.0) | – | – | X (X = positive for immunoreactivity as defined by 00/background^3.0) | – | – | – | – | – | – | – | – | – | 2 | –
5 | VPLQCSALLVREEGLMQNCNQ [Peptide 27] | – | – | – | – | – | – | – | – | – | – | – | – | – | – | b (b = borderline response (00/background ?2.5-2.9).) | – | –
6 | B1 | – | – | – | – | – | – | – | – | – | – | – | – | – | – | – | – | band intensity of immunoprecipitated ^35S-GAD ([2]; serum of patient eight, drawn 8 months before IDDM onset): 0; band intensity of immunoprecipitated ^35S-GAD ([2]; serum of patient eleven, drawn 10 months before IDDM onset): 1; band intensity of immunoprecipitated ^35S-GAD ([2]; serum of patient five, drawn 34 months before IDDM onset): 0; band intensity of immunoprecipitated ^35S-GAD ([2]; serum of patient nine, drawn 42 months before IDDM onset): 0; band intensity of immunoprecipitated ^35S-GAD ([2]; serum of patient one, drawn 9 months before IDDM onset): 1; band intensity of immunoprecipitated ^35S-GAD ([2]; serum of patient seven, drawn 3 months before IDDM onset): 1; band intensity of immunoprecipitated ^35S-GAD ([2]; serum of patient six, drawn 11 months before IDDM onset): 1; band intensity of immunoprecipitated ^35S-GAD ([2]; serum of patient ten, drawn 25 months before IDDM onset): 1; band intensity of immunoprecipitated ^35S-GAD ([2]; serum of patient three, drawn 14 months before IDDM onset): 0; band intensity of immunoprecipitated ^35S-GAD ([2]; serum of patient twelve, drawn 4 months before IDDM onset): 0; band intensity of immunoprecipitated ^35S-GAD ([2]; serum of patient two, drawn 6 months before IDDM onset): 2; band intensity of immunoprecipitated ^35S-GAD ([2]; serum of patient, drawn 66 months before IDDM onset): 0
